Source: patent US20090275574A1, “NOVEL COMPOUNDS-300” (ASTRAZENECA AB, priority 2008, published 2009)

Experiments:
[1] = target: T1, hM5 (human Muscarinic receptor subtype 5) (Homo sapiens, UniProt P08912); test: Human M5 calcium mobilization FLIPR assay; assay type: cell-based; conditions: hM5 expressed in CHO cells, intracellular Ca2+ release (FLIPR)
T1 construct: expressed in transfected cells; host or cells: CHO cells (ATCC)
T1 sequence (P08912 1-532): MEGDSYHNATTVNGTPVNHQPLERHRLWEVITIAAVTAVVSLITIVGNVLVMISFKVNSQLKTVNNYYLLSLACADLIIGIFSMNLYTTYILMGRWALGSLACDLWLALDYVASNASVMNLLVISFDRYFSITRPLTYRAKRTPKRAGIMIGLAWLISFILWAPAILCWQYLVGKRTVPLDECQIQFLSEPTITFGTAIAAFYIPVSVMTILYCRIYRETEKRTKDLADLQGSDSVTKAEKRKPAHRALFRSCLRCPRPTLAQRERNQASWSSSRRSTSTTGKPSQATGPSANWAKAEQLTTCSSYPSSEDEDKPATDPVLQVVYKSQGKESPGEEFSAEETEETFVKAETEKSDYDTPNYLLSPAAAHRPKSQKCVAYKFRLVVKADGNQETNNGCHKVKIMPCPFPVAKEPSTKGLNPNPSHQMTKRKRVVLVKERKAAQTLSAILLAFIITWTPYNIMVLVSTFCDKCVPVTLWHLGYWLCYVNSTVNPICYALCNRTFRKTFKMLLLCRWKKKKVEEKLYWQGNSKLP
Procedure: Human M1, rat M1, Human M3 and Human M5 Calcium Mobilization FLIPR™ Assay The compound activity in the present invention (EC50 or IC50) is measured using a 384 plate-based imaging assay that monitors drug induced intracellular Ca^2+ release in whole cells. Activation of hM1 (human Muscarinic receptor subtype 1, gene bank access NM_000738), rM1 (rat Muscarinic receptor subtype 1, gene bank access NM_080773), hM3 (human Muscarinic receptor subtype 3, gene bank access NM_000740NM_000740) and hM5 (human Muscarinic receptor subtype 5, gene bank access NM_0121258), receptors expressed in CHO cells (Chinese hamster ovary cells, ATCC) is quantified in a Molecular Devices FLIPR IITM instrument as an increase in fluorescent signal. Inhibition of hM3 and hM5 by compounds is determined by the decrease in fluorescent signal in response to 2 nM acetylcholine activation. […] Prior to experiment, the cell culture medium is removed from the plates by inversion. […] Plates are incubated at 37° C. for 60 minutes prior to start the experiment. The incubation is terminated by washing the cells four times in assay buffer, leaving a residual 25 μl buffer per well. Cell plates are then transferred to the FLIPR, ready for compound additions. The day of experiment, acetylcholine and compounds are diluted in assay buffer in three-fold concentration range (10 points serial dilution) for addition by FLIPR instrument. For all calcium assays, a baseline reading is taken for 10 seconds followed by the addition of 12.5 μl of compounds, resulting in a total well volume of 37.5 μl. Data is collected every second for 60 pictures and then every 6 seconds for 20 pictures prior to the addition of agonist. For hM3 and hM5, before agonist addition, a second baseline reading is taken for 10 seconds followed by the addition of 12.5 μl of agonist or buffer, producing a final volume of 50 μl. After agonist stimulation, the FLIPR continues to collect data every second for 60 pictures and then every 6 seconds for 20 pictures. The fluorescence emission is read using filter 1 (emission 510-570 nm) by the FLIPR on board CCD camera. Calcium mobilization output data are calculated as the maximal relative fluorescence unit (RFU) minus the minimal value for both compound and agonist reading frame (except for hM1 and rM1 using only the maximal RFU). Data are analyzed using sigmoidal fits of a non-linear curve-fitting program (XLfit version 4.2.2 Excel add-in version 4.2.2 build 18 math 1Q version 2.1.2 build 18). All pEC50 and pIC50 values are reported as arithmetic means±standard error of mean of ‘n’ independent experiments.

[2] = target: T2, cloned human M2 receptor (Homo sapiens, UniProt P08172); test: hM2 receptor GTPγS binding; assay type: biochemical; conditions: CHO membranes expressing hM2, [35S]GTPγS binding
T2 construct: purchased Perkin-Elmer RBHM2M; host or cells: Chinese hamster ovary cells (CHO), membranes
T2 sequence (P08172 1-466): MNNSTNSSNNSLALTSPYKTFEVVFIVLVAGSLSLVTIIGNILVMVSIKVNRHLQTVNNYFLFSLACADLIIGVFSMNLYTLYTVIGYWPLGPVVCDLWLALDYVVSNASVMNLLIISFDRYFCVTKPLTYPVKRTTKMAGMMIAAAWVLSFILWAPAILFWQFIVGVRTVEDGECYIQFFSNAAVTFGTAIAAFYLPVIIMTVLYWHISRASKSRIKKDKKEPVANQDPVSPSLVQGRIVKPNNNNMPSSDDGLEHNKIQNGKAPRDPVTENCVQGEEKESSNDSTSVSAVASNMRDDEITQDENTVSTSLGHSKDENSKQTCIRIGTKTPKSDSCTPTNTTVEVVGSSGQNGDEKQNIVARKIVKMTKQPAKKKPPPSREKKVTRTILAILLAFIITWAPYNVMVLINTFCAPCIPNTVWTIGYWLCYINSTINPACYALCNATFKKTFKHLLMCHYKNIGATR
Procedure: hM2 Receptor GTPγS Binding Membranes produced from Chinese hamster ovary cells (CHO) expressing the cloned human M2 receptor (human Muscarinic receptor subtype 2, gene bank access NM_000739), are obtained from Perkin-Elmer (RBHM2M). The membranes are thawed at 37° C., passed 3 times through a 23-gauge blunt-end needle, diluted in the GTPγS binding buffer (50 mM Hepes, 20 mM NaOH, 100 mM NaCl, 1 mM EDTA, 5 mM MgCl2, pH 7.4, 100 μM DTT). The EC50, IC50 and Emax of the compounds of the invention are evaluated from 10-point dose-response curves (three fold concentration range) done in 60 μl in 384-well non-specific binding surface plate (Corning). Ten microliters from the dose-response curves plate (5× concentration) are transferred to another 384 well plate containing 25 μl of the following: 5 μg of hM2 membranes, 500 μg of Flashblue beads (Perkin-Elmer) and GDP 25 μM. An additional 15 μl containing 3.3× (60,000 dpm) of GTPγ^35S (0.4 nM final) are added to the wells resulting in a total well volume of 50 μl. Basal and maximal stimulated [^35S]GTPγS binding are determined in absence and presence of 30 μM final of acetylcholine agonist. The membranes/beads mix are pre-incubated for 15 minutes at room temperature with 25 μM GDP prior to distribution in plates (12.5 μM final). The reversal of acetylcholine-induced stimulation (2 μM final) of [^35S]GTPγS binding is used to assay the antagonist properties (IC50) of the compounds. The plates are incubated for 60 minutes at room temperature then centrifuged at 400 rpm for 5 minutes. The radioactivity (cpm) is counted in a Trilux (Perkin-Elmer). Values of EC50, IC50 and Emax are obtained using sigmoidal fits of a non-linear curve-fitting program (XLfit version 4.2.2 Excel add-in version 4.2.2 build 18 math 1Q version 2.1.2 build 18) of percent stimulated [^35S]GTPγS binding vs. log(molar ligand). All pEC50 and pIC50 values are reported as arithmetic means±standard error of mean of ‘n’ independent experiments.

CCOCC1CCC(N2CCC(N3C(=O)NC[C@H]4CCCC[C@@H]43)CC2)CC1 (mixture of isomers) [Example 08, (4aR,8aS)-1-(1-(4-(ethoxymethyl)cyclohexyl)piperidin-4-yl)octahydroquinazolin-2(1H)-one]
EC50 [1]: 0.069 µM | EC50 [2]: 0.35 µM

CC(C)OCC1CCC(N2CCC(N3C(=O)CO[C@H]4CCCC[C@@H]43)CC2)CC1 (mixture of isomers) [Example 15, (4aS,8aS)-4-(1-(4-(isopropoxymethyl)cyclohexyl)piperidin-4-yl)hexahydro-2H-benzo[b][1,4]oxazin-3(4H)-one]
EC50 [1]: > 40 µM | EC50 [2]: 3.5 µM

CCCOCC1CCC(N2CCC(N3C(=O)NC[C@H]4CCCC[C@@H]43)CC2)CC1 (single isomer, unassigned) [Example 01]
EC50 [1]: > 40 µM | EC50 [2]: 7.7 µM

CCCOCC1CCC(N2CCC(N3C(=O)NC[C@H]4CCCC[C@@H]43)CC2)CC1 (single isomer, unassigned) [Example 02]
EC50 [1]: > 2.77 µM | EC50 [2]: 0.24 µM

CC(C)OCC1CCC(N2CCC(N3C(=O)NC[C@H]4CCCC[C@@H]43)CC2)CC1 (single isomer, unassigned) [Example 04]
EC50 [1]: > 40 µM | EC50 [2]: 0.66 µM

CCCOC1CCC(N2CCC(N3C(=O)NC[C@H]4CCCC[C@@H]43)CC2)CC1 (single isomer, unassigned) [Example 06]
EC50 [2]: 2.5 µM

CCOCC1CCC(N2CCC(N3C(=O)CO[C@H]4CCCC[C@@H]43)CC2)CC1 (single isomer, unassigned) [Example 13]
EC50 [1]: > 40 µM | EC50 [2]: > 21 µM

CCOCC1CCC(N2CCC(N3C(=O)CO[C@H]4CCCC[C@@H]43)CC2)CC1 (single isomer, unassigned) [Example 14]
EC50 [1]: > 40 µM | EC50 [2]: 2.8 µM

CCCOC1CCC(N2CCC(N3C(=O)CO[C@H]4CCCC[C@@H]43)CC2)CC1 (single isomer, unassigned) [Example 17]
EC50 [2]: > 48 µM

CC(C)OCC1CCC(N2CCC(N3C(=O)CO[C@H]4CCCC[C@@H]43)CC2)CC1 (single isomer, unassigned) [Example 18]
EC50 [1]: > 40 µM | EC50 [2]: 3.5 µM

CC(C)OCC1CCC(N2CCC(N3C(=O)CO[C@H]4CCCC[C@@H]43)CC2)CC1 (single isomer, unassigned) [Example 19]
EC50 [1]: > 40 µM | EC50 [2]: 8.7 µM

O=C1CO[C@H]2CCCC[C@@H]2N1C1CCN(C2CCC(COCC3CC3)CC2)CC1 (single isomer, unassigned) [Example 22]
EC50 [2]: 1 µM

O=C1CO[C@H]2CCCC[C@@H]2N1C1CCN(C2CCC(COCC3CC3)CC2)CC1 (single isomer, unassigned) [Example 23]
EC50 [2]: > 1.2 µM

O=C1CO[C@H]2CCCC[C@@H]2N1C1CCN(C2CCC(COCCF)CC2)CC1 (single isomer, unassigned) [Example 24]
EC50 [1]: > 40 µM | EC50 [2]: > 5.7 µM

O=C1CO[C@H]2CCCC[C@@H]2N1C1CCN(C2CCC(COCCF)CC2)CC1 (single isomer, unassigned) [Example 25]
EC50 [1]: > 40 µM | EC50 [2]: > 2.7 µM

O=C1CO[C@H]2CCCC[C@@H]2N1C1CCN(C2CCC(COCC(F)F)CC2)CC1 (single isomer, unassigned) [Example 26]
EC50 [1]: > 40 µM | EC50 [2]: > 3.6 µM

O=C1CO[C@H]2CCCC[C@@H]2N1C1CCN(C2CCC(COCC(F)F)CC2)CC1 (single isomer, unassigned) [Example 27]
EC50 [1]: > 40 µM | EC50 [2]: 0.87 µM

CC(C)OCC1CCC(N2CCC(N3C(=O)CO[C@H]4CCC(F)(F)C[C@@H]43)CC2)CC1 (single isomer, unassigned) [Example 37]
EC50 [1]: > 40 µM | EC50 [2]: > 13 µM

CC(C)OCC1CCC(N2CCC(N3C(=O)CO[C@H]4CCC(F)(F)C[C@@H]43)CC2)CC1 (single isomer, unassigned) [Example 38]
EC50 [1]: > 40 µM | EC50 [2]: > 10 µM

CCOCC1CC(N2CCC(N3C(=O)CO[C@H]4CCCC[C@@H]43)CC2)C1 (single isomer, unassigned) [Example 39]
EC50 [1]: > 40 µM | EC50 [2]: 5 µM

O=C1CO[C@H]2CCCC[C@@H]2N1C1CCN(C2CC(COCC3CCC3)C2)CC1 (single isomer, unassigned) [Example 40]
EC50 [2]: 4.4 µM

CCOCC1CCC(N2CCC(N3C(=O)CO[C@H]4CCCC[C@@H]43)CC2)C1 (single isomer, unassigned) [Example 44]
EC50 [1]: 2.92 µM | EC50 [2]: 1.6 µM

CCOCC1CCC(N2CCC(N3C(=O)CO[C@H]4CCCC[C@@H]43)CC2)C1 (single isomer, unassigned) [Example 45]
EC50 [1]: > 40 µM | EC50 [2]: 6.1 µM

O=C1COC2CCCC2N1C1CCN([C@H]2CC[C@@H](COCC3CC3)CC2)CC1 (single isomer, unassigned) [Example 48]
EC50 [1]: > 40 µM | EC50 [2]: 2.2 µM

O=C1NC[C@H]2CCCC[C@@H]2N1C1CCN(C2CCC(COCC(F)F)CC2)CC1 (single isomer, unassigned) [Example 51]
EC50 [1]: > 15.7 µM | EC50 [2]: 3 µM

CCOC[C@H]1CC[C@@H](N2CCC(N3C(=O)CO[C@H]4CCCC[C@@H]43)CC2)C1 [Example 42, (4aS,8aS)-4-(1-((1R,3S)-3-(ethoxymethyl)cyclopentyl)piperidin-4-yl)hexahydro-2H-benzo[b][1,4]oxazin-3(4H)-one]
EC50 [1]: > 4.22 µM | EC50 [2]: 1.6 µM
